{"source": "patent US20210254056A1", "about": "“IDENTIFICATION AND TARGETED MODULATION OF GENE SIGNALING NETWORKS” (CAMP4 THERAPEUTICS CORPORATION, priority 2017, published 2021)", "test_system": "hepatocytes", "assay": "RNA-seq of hepatocytes treated with Phase III failure compounds", "settings": "hepatocytes", "protocol": "RNA-seq was performed to determine the effects of the compounds on hepatocytes.\nSignificance was determined by the criteria of FPKM≥0.5, a log 2(fold-change)≥1, and a […]."}
{"smiles": "CCC(CC)[C@H](NC(C)=O)[C@@H]1[C@H](O)[C@@H](C(=O)O)C[C@H]1NC(=N)N.O.O.O", "note": "[peramivir (trihydrate), peramivir]", "values": [{"measurement": "RNA-seq results, PTRH2", "setting": "gene PTRH2", "result": 0.15}, {"measurement": "RNA-seq results: PTRH2", "setting": "gene PTRH2", "result": "−0.47"}, {"measurement": "RNA-seq results, PUS1", "setting": "gene PUS1", "result": 0.16}, {"measurement": "RNA-seq results: PUS1", "setting": "gene PUS1", "result": 0.29}, {"measurement": "RNA-seq results, PXMP2", "setting": "gene PXMP2", "result": 0.19}, {"measurement": "RNA-seq results: PXMP2", "setting": "gene PXMP2", "result": "−0.29"}, {"measurement": "RNA-seq results, PXMP4", "setting": "gene PXMP4", "result": 0.22}, {"measurement": "RNA-seq results: PXMP4", "setting": "gene PXMP4", "result": "−0.05"}, {"measurement": "RNA-seq results, RAI1", "setting": "gene RAI1", "result": 0.12}, {"measurement": "RNA-seq results: RAI1", "setting": "gene RAI1", "result": 0.38}, {"measurement": "RNA-seq results, RANBP2", "setting": "gene RANBP2", "result": "−0.29"}, {"measurement": "RNA-seq results: RANBP2", "setting": "gene RANBP2", "result": "−0.16"}, {"measurement": "RNA-seq results, RASA1", "setting": "gene RASA1", "result": "−0.13"}, {"measurement": "RNA-seq results: RASA1", "setting": "gene RASA1", "result": "−0.26"}, {"measurement": "RNA-seq results, RBCK1", "setting": "gene RBCK1", "result": 0.64}, {"measurement": "RNA-seq results: RBCK1", "setting": "gene RBCK1", "result": 0.26}, {"measurement": "RNA-seq results, RBM10", "setting": "gene RBM10", "result": 0.13}, {"measurement": "RNA-seq results: RBM10", "setting": "gene RBM10", "result": 0.11}, {"measurement": "RNA-seq results, REN", "setting": "gene REN", "result": 0}, {"measurement": "RNA-seq results: REN", "setting": "gene REN", "result": 0.46}, {"measurement": "RNA-seq results, RMND1", "setting": "gene RMND1", "result": "−0.07"}, {"measurement": "RNA-seq results: RMND1", "setting": "gene RMND1", "result": "−0.47"}, {"measurement": "RNA-seq results, RMRP", "setting": "gene RMRP", "result": 0.54}, {"measurement": "RNA-seq results: RMRP", "setting": "gene RMRP", "result": "−1.76"}, {"measurement": "RNA-seq results, RNASEH2A", "setting": "gene RNASEH2A", "result": 0.54}, {"measurement": "RNA-seq results: RNASEH2A", "setting": "gene RNASEH2A", "result": "−0.19"}, {"measurement": "RNA-seq results, RORC", "setting": "gene RORC", "result": 0.4}, {"measurement": "RNA-seq results: RORC", "setting": "gene RORC", "result": 0.58}, {"measurement": "RNA-seq results, RPGRIP1L", "setting": "gene RPGRIP1L", "result": "−0.2"}, {"measurement": "RNA-seq results: RPGRIP1L", "setting": "gene RPGRIP1L", "result": "−0.12"}, {"measurement": "RNA-seq results, RRM2B", "setting": "gene RRM2B", "result": "−0.53"}, {"measurement": "RNA-seq results: RRM2B", "setting": "gene RRM2B", "result": "−0.34"}, {"measurement": "RNA-seq results, RSAD1", "setting": "gene RSAD1", "result": 0.1}, {"measurement": "RNA-seq results: RSAD1", "setting": "gene RSAD1", "result": 0.11}, {"measurement": "RNA-seq results, SAMHD1", "setting": "gene SAMHD1", "result": "−0.29"}, {"measurement": "RNA-seq results: SAMHD1", "setting": "gene SAMHD1", "result": "−0.43"}, {"measurement": "RNA-seq results, SC5D", "setting": "gene SC5D", "result": 0.05}, {"measurement": "RNA-seq results: SC5D", "setting": "gene SC5D", "result": "−0.56"}, {"measurement": "RNA-seq results, SCARB1", "setting": "gene SCARB1", "result": 0.12}, {"measurement": "RNA-seq results: SCARB1", "setting": "gene SCARB1", "result": 0.11}, {"measurement": "RNA-seq results, SCN9A", "setting": "gene SCN9A", "result": "−0.56"}, {"measurement": "RNA-seq results: SCN9A", "setting": "gene SCN9A", "result": "−0.09"}, {"measurement": "RNA-seq results, SDCCAG8", "setting": "gene SDCCAG8", "result": "−0.12"}, {"measurement": "RNA-seq results: SDCCAG8", "setting": "gene SDCCAG8", "result": "−0.10"}, {"measurement": "RNA-seq results, SEPN1", "setting": "gene SEPN1", "result": 0.26}, {"measurement": "RNA-seq results: SEPN1", "setting": "gene SEPN1", "result": "−0.02"}, {"measurement": "RNA-seq results, SERAC1", "setting": "gene SERAC1", "result": "−0.1"}, {"measurement": "RNA-seq results: SERAC1", "setting": "gene SERAC1", "result": "−0.34"}, {"measurement": "RNA-seq results, SERPINA1", "setting": "gene SERPINA1", "result": "−0.03"}, {"measurement": "RNA-seq results: SERPINA1", "setting": "gene SERPINA1", "result": "−0.16"}, {"measurement": "RNA-seq results, SERPING1", "setting": "gene SERPING1", "result": 0.12}, {"measurement": "RNA-seq results: SERPING1", "setting": "gene SERPING1", "result": "−0.27"}, {"measurement": "RNA-seq results, SERPINI1", "setting": "gene SERPINI1", "result": "−0.33"}, {"measurement": "RNA-seq results: SERPINI1", "setting": "gene SERPINI1", "result": "−0.37"}, {"measurement": "RNA-seq results, SETBP1", "setting": "gene SETBP1", "result": "−0.1"}, {"measurement": "RNA-seq results: SETBP1", "setting": "gene SETBP1", "result": 0.05}, {"measurement": "RNA-seq results, SFXN4", "setting": "gene SFXN4", "result": 0.09}, {"measurement": "RNA-seq results: SFXN4", "setting": "gene SFXN4", "result": "−0.17"}, {"measurement": "RNA-seq results, SLC2A1", "setting": "gene SLC2A1", "result": 0.56}, {"measurement": "RNA-seq results: SLC2A1", "setting": "gene SLC2A1", "result": 0.08}, {"measurement": "RNA-seq results, SLC2A2", "setting": "gene SLC2A2", "result": "−0.62"}, {"measurement": "RNA-seq results: SLC2A2", "setting": "gene SLC2A2", "result": "−0.24"}, {"measurement": "RNA-seq results, SLC2A9", "setting": "gene SLC2A9", "result": 0.24}, {"measurement": "RNA-seq results: SLC2A9", "setting": "gene SLC2A9", "result": 0.16}, {"measurement": "RNA-seq results, SLC4A4", "setting": "gene SLC4A4", "result": "−0.08"}, {"measurement": "RNA-seq results: SLC4A4", "setting": "gene SLC4A4", "result": "−0.30"}, {"measurement": "RNA-seq results, SLC6A6", "setting": "gene SLC6A6", "result": 0.1}, {"measurement": "RNA-seq results: SLC6A6", "setting": "gene SLC6A6", "result": "−0.29"}, {"measurement": "RNA-seq results, SLC6A8", "setting": "gene SLC6A8", "result": 0.26}, {"measurement": "RNA-seq results: SLC6A8", "setting": "gene SLC6A8", "result": 0.27}, {"measurement": "RNA-seq results, SLC6A20", "setting": "gene SLC6A20", "result": 0.4}, {"measurement": "RNA-seq results: SLC6A20", "setting": "gene SLC6A20", "result": "−0.44"}, {"measurement": "RNA-seq results, SLC7A7", "setting": "gene SLC7A7", "result": "−0.01"}, {"measurement": "RNA-seq results: SLC7A7", "setting": "gene SLC7A7", "result": 0.03}, {"measurement": "RNA-seq results, SLC10A1", "setting": "gene SLC10A1", "result": "−0.05"}, {"measurement": "RNA-seq results: SLC10A1", "setting": "gene SLC10A1", "result": "−0.14"}, {"measurement": "RNA-seq results, SLC10A3", "setting": "gene SLC10A3", "result": 0.11}, {"measurement": "RNA-seq results: SLC10A3", "setting": "gene SLC10A3", "result": 0.57}, {"measurement": "RNA-seq results, SLC10A5", "setting": "gene SLC10A5", "result": "−0.66"}, {"measurement": "RNA-seq results: SLC10A5", "setting": "gene SLC10A5", "result": 0.46}, {"measurement": "RNA-seq results, SLC10A7", "setting": "gene SLC10A7", "result": "−0.13"}, {"measurement": "RNA-seq results: SLC10A7", "setting": "gene SLC10A7", "result": "−0.54"}, {"measurement": "RNA-seq results, SLC11A2", "setting": "gene SLC11A2", "result": 0.08}, {"measurement": "RNA-seq results: SLC11A2", "setting": "gene SLC11A2", "result": 0.04}, {"measurement": "RNA-seq results, SLC19A1", "setting": "gene SLC19A1", "result": 0.2}, {"measurement": "RNA-seq results: SLC19A1", "setting": "gene SLC19A1", "result": 0.05}, {"measurement": "RNA-seq results, SLC19A2", "setting": "gene SLC19A2", "result": 0.09}, {"measurement": "RNA-seq results: SLC19A2", "setting": "gene SLC19A2", "result": "−0.17"}, {"measurement": "RNA-seq results, SLC19A3", "setting": "gene SLC19A3", "result": 0}, {"measurement": "RNA-seq results: SLC19A3", "setting": "gene SLC19A3", "result": "−0.16"}, {"measurement": "RNA-seq results, SLC22A1", "setting": "gene SLC22A1", "result": 0.13}, {"measurement": "RNA-seq results: SLC22A1", "setting": "gene SLC22A1", "result": "−0.12"}, {"measurement": "RNA-seq results, SLC22A5", "setting": "gene SLC22A5", "result": 0.12}, {"measurement": "RNA-seq results: SLC22A5", "setting": "gene SLC22A5", "result": "−0.16"}, {"measurement": "RNA-seq results, SLC25A1", "setting": "gene SLC25A1", "result": 0.16}, {"measurement": "RNA-seq results: SLC25A1", "setting": "gene SLC25A1", "result": 0.33}, {"measurement": "RNA-seq results, SLC25A10", "setting": "gene SLC25A10", "result": 0.09}, {"measurement": "RNA-seq results: SLC25A10", "setting": "gene SLC25A10", "result": 0.12}, {"measurement": "RNA-seq results, SLC25A12", "setting": "gene SLC25A12", "result": 0.29}, {"measurement": "RNA-seq results: SLC25A12", "setting": "gene SLC25A12", "result": 0.27}, {"measurement": "RNA-seq results, SLC25A13", "setting": "gene SLC25A13", "result": 0.11}, {"measurement": "RNA-seq results: SLC25A13", "setting": "gene SLC25A13", "result": "−0.17"}, {"measurement": "RNA-seq results, SLC25A15", "setting": "gene SLC25A15", "result": "−0.01"}, {"measurement": "RNA-seq results: SLC25A15", "setting": "gene SLC25A15", "result": 0.03}, {"measurement": "RNA-seq results, SLC25A19", "setting": "gene SLC25A19", "result": "−0.01"}, {"measurement": "RNA-seq results: SLC25A19", "setting": "gene SLC25A19", "result": "−0.19"}, {"measurement": "RNA-seq results, SLC25A20", "setting": "gene SLC25A20", "result": "−0.1"}, {"measurement": "RNA-seq results: SLC25A20", "setting": "gene SLC25A20", "result": "−0.32"}, {"measurement": "RNA-seq results, SLC25A29", "setting": "gene SLC25A29", "result": 0.22}, {"measurement": "RNA-seq results: SLC25A29", "setting": "gene SLC25A29", "result": 0.65}, {"measurement": "RNA-seq results, SLC25A32", "setting": "gene SLC25A32", "result": "−0.09"}, {"measurement": "RNA-seq results: SLC25A32", "setting": "gene SLC25A32", "result": "−0.32"}, {"measurement": "RNA-seq results, SLC27A2", "setting": "gene SLC27A2", "result": "−0.21"}, {"measurement": "RNA-seq results: SLC27A2", "setting": "gene SLC27A2", "result": "−0.36"}, {"measurement": "RNA-seq results, SLC27A5", "setting": "gene SLC27A5", "result": 0.25}, {"measurement": "RNA-seq results: SLC27A5", "setting": "gene SLC27A5", "result": 0.13}, {"measurement": "RNA-seq results, SLC29A3", "setting": "gene SLC29A3", "result": 0.07}, {"measurement": "RNA-seq results: SLC29A3", "setting": "gene SLC29A3", "result": "−0.02"}, {"measurement": "RNA-seq results, SLC33A1", "setting": "gene SLC33A1", "result": 0.02}]}
